In general, IC50 refers to the concentration needed to halve the response being measured.

Experimental findings from patent publication US20150368242A1, “NOVEL TETRAHYDROPYRIDOPYRIMIDINONE DERIVATIVE” (Ajinomoto Co., Inc., priority 2013, published 2015) are described below.

Structures can show the parent of a compound that is named as a salt.

The target of this experiment is T1, recombinant human MGAT2 enzyme (Homo sapiens, UniProt Q3SYC2).
T1 construct: made in house; host or cells: CHO-K1 (Jump-In CHO-K1 Kit, Life Technologies); microsomal fraction used as the enzyme solution
T1 sequence (Q3SYC2 whole entry): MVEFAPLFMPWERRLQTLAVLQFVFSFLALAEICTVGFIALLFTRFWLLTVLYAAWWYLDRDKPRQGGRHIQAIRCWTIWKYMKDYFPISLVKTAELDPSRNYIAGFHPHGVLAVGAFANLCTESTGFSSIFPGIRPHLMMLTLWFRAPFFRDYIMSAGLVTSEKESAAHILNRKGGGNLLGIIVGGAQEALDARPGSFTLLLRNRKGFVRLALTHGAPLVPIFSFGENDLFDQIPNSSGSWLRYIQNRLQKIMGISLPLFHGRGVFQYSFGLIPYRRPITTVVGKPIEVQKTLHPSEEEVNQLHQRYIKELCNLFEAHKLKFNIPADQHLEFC
The experiment can be described thus: Test for human MGAT2 activity inhibitory action (14C-oleoyl CoA, recombinant enzyme microsomes). Format: biochemical. On the set-up: key to Potency relative to Comparative Example 1 (higher = more potent): % inhibition = {1−(C−B)/(A−B)}×100, B = 10 μM Comparative Example 1. The following applies: for IC50: Table 5, Examples 25 to 60, same method, read-out: IC50; for Potency relative to Comparative Example 1 (higher = more potent): Table 5, relative to Comparative Example 1 measured in the same run. Here is the method:
The human MGAT2 gene described in Am. J. Physiol. Endocrinol. Metab. 285: E927-E937, 2003 was expressed using Jump-In™ CHO-K1 Kit (Life technologies) as described in the attached manual. The cells were suspended in a buffer containing Tris-hydrochloric acid (pH 7.4) at a final concentration of 1 mM, 1 mM ethylenediaminetetraacetic acid, 1 mM dithiothreitol, 250 mM sucrose, and complete protease inhibitor cocktail (Roche applied Science), and then disrupted using a Teflon homogenizer (AS ONE Corporation), followed by centrifugation at 130 g for 10 minutes. The supernatant was further centrifuged at 100,000 g for 1 hour to obtain a pellet as microsomes containing the recombinant enzyme, and a solution obtained by suspending this pellet at a protein concentration of about 800 to 1900 μg/ml was used as an MGAT recombinant enzyme solution.
To a buffer containing 50 mM Tris-hydrochloric acid (pH 7.4), 6 mM magnesium chloride, and 2 mg/mL bovine serum albumin, a test compound was added, and the final concentration of dimethyl sulfoxide was adjusted to 0.3%. Moreover, 2-monooleoyl glycerol, oleoyl CoA, 1-^14C-oleoyl CoA (Perkin Elmer), and orlistat (SIGMA) were added at final concentrations of 50 μM, 50 μM, 2.2 μM, and 8.3 μM, respectively, followed by incubation at 37° C. for 10 minutes. After 10 minutes, the recombinant human MGAT2 enzyme solution was added at a final concentration of 0.67 μg/mL, and the reaction was started, with the amount of the reaction solution being 150 μl. The reaction was carried out at 37° C. for 30 minutes.
After 30 minutes, the reaction was stopped by adding 300 μl of isopropanol:heptane:water=(80:20:2) to the reaction liquid. Further, 200 μl of heptane and 100 μl of water were added, followed by stirring. Then, 100 μl of the upper layer was transferred to a 96-well plate (Corning), and mixed with 100 μl of liquid scintillator (LumaSafe Plus, Lumac). Then, the ^14C count was quantitatively determined using TopCount NXT™ microplate scintillation luminescence counter (Perkin Elmer).
The ^14C count in a case where no test compound was added was defined as A, the ^14C count in a case where 10 μM of the compound (Comparative Example 1) of Example No. 8 of WO2008/038768 was added was defined as B, and the ^14C count in the case where the test compound was added was taken as C. For this case, {1−(C−B)/(A−B)}×100(%) was calculated as the human MGAT2 activity inhibition ratio of the test compound (shown in the column named vs Comp. Ex. 1 in the following Table). A greater value of the “vs Comparative Example 1” means that the MGAT2 activity inhibitory action of the compound of Example was higher as compared to the MGAT2 activity inhibitory action of the compound of Comparative Example 1 (i.e., the human MGAT2 activity inhibition ratio was higher). […] Since this evaluation test was conducted for two separate groups, the test results of the two groups are shown separately in Table (First Test) and Table 4 (Second Test).
Next, the compounds of Examples 25 to 60 of the present invention were also investigated for their pharmacological action by using the same method as in Examples 1 to 24. […] Note that, a comparative evaluation test against the compound of Comparative Example 1 was conducted for each of the compounds of Examples (in every measurement of the inhibitory activity of the compounds of Examples 25 to 60, the inhibitory activity of the compound of Comparative Example 1 was measured). The 50% inhibition concentrations of Comparative Example 1 in the measurement of the inhibitory activities of the compounds of Examples 25 to 60 were shown in Table 5 as “IC50 (nM) of Comparative Example 1.”

For `O=C(CCNCC(O)c1ccccc1)N1CCc2nc(SC3CCC3)n(-c3ccccc3)c(=O)c2C1` (stereo not shown) [Example 29, 2-cyclobutylsulfanyl-6-[3-[(2-hydroxy-2-phenyl-ethyl)amino]propanoyl]-3-phenyl-7,8-dihydro-5H-pyrido[4,3-d]pyrimidin-4-one trifluoroacetate], the IC50 came to 1.5 nM and the “Potency relative to Comparative Example 1 (higher = more potent)” value turned out to be 138.
Regarding `O=C(CCNCCc1ccc(O)cc1)N1CCc2nc(SC3CCC3)n(-c3ccccc3)c(=O)c2C1` [Example 30, 2-cyclobutylsulfanyl-6-[3-[2-(4-hydroxyphenyl)ethylamino]propanoyl]-3-phenyl-7,8-dihydro-5H-pyrido[4,3-d]pyrimidin-4-one trifluoroacetate], the IC50 was 3 nM and the “Potency relative to Comparative Example 1 (higher = more potent)” value amounted to 69.
For the molecule `CN(C)c1ccc(CNCCC(=O)N2CCc3nc(SC4CCC4)n(-c4ccccc4)c(=O)c3C2)cc1` [Example 31, 2-cyclobutylsulfanyl-6-[3-[(4-dimethylaminophenyl)methylamino]propanoyl]-3-phenyl-7,8-dihydro-5H-pyrido[4,3-d]pyrimidin-4-one trifluoroacetate], the half-maximal inhibitory concentration (IC50) was 1.6 nM and the “Potency relative to Comparative Example 1 (higher = more potent)” value turned out to be 130.
On the same counts, the results for `O=C(CCNCc1ccc2c(c1)CCO2)N1CCc2nc(SC3CCC3)n(-c3ccccc3)c(=O)c2C1` [Example 32, 2-cyclobutylsulfanyl-6-[3-(2,6-dihydrobenzofuran-5-ylmethylamino)propanoyl]-3-phenyl-7,8-dihydro-5H-pyrido[4,3-d]pyrimidin-4-one trifluoroacetate] are 1.3 nM and 166.
For the molecule `O=C(CCNCCCCCOc1ccc(C(F)(F)F)cc1)N1CCc2nc(SC3CCC3)n(-c3ccccc3)c(=O)c2C1` [Example 33, 2-cyclobutylsulfanyl-3-phenyl-6-[3-[5-[4-(trifluoromethyl)phenoxy]pentylamino]propanoyl]-7,8-dihydro-5H-pyrido[4,3-d]pyrimidin-4-one trifluoroacetate], the IC50 was 0.8 nM and the “Potency relative to Comparative Example 1 (higher = more potent)” value was determined as 228.
On the same counts, the results for `O=C(CCNCc1nc(Cc2ccccc2)no1)N1CCc2nc(SC3CCC3)n(-c3ccccc3)c(=O)c2C1` [Example 34, 6-[3-[(3-benzyl-1,2,4-oxadiazol-5-yl)methylamino]propanoyl]-2-cyclobutylsulfanyl-3-phenyl-7,8-dihydro-5H-pyrido[4,3-d]pyrimidin-4-one trifluoroacetate] are 3.2 nM and 47.
For `O=C(CCNCc1c(F)cccc1F)N1CCc2nc(SC3CCC3)n(-c3ccccc3)c(=O)c2C1` [Example 35, 2-cyclobutylsulfanyl-6-[3-[(2,6-difluorophenyl)methylamino]propanoyl]-3-phenyl-7,8-dihydro-5H-pyrido[4,3-d]pyrimidin-4-one trifluoroacetate] the same measures were 1.1 nM and 130.
For `C[C@@H](CNCCC(=O)N1CCc2nc(SC3CCC3)n(-c3ccccc3)c(=O)c2C1)c1ccccc1` [Example 36], the IC50 was 0.7 nM and the “Potency relative to Comparative Example 1 (higher = more potent)” value worked out at 205.
Take `C[C@H](CNCCC(=O)N1CCc2nc(SC3CCC3)n(-c3ccccc3)c(=O)c2C1)c1ccccc1` [Example 37, 2-cyclobutylsulfanyl-3-phenyl-6-[3-[[(2S)-2-phenylpropyl]amino]propanoyl]-7,8-dihydro-5H-pyrido[4,3-d]pyrimidin-4-one trifluoroacetate]: the half-inhibitory concentration (IC50) stood at 0.5 nM and the “Potency relative to Comparative Example 1 (higher = more potent)” value came out at 273.
As for `O=C(CCNCCNc1ccccc1)N1CCc2nc(SC3CCC3)n(-c3ccccc3)c(=O)c2C1` [Example 38, 6-[3-(2-aminolinoethylamino)propanoyl]-2-cyclobutylsulfanyl-3-phenyl-7,8-dihydro-5H-pyrido[4,3-d]pyrimidin-4-one trifluoroacetate], the half-maximal inhibitory concentration (IC50) was determined as 1.4 nM and the “Potency relative to Comparative Example 1 (higher = more potent)” value was determined as 211.
`O=C(CCNCC1CCCC(C(F)(F)F)C1)N1CCc2nc(SC3CCC3)n(-c3ccccc3)c(=O)c2C1` (stereo not shown) [Example 39, 2-cyclobutylsulfanyl-3-phenyl-6-[3-[[3-(trifluoromethyl)cyclohexyl]methylamino]propanoyl]-7,8-dihydro-5H-pyrido[4,3-d]pyrimidin-4-one trifluoroacetate]: the IC50 was found to be 0.4 nM and the “Potency relative to Comparative Example 1 (higher = more potent)” value came out at 320.
Turning to `CC(C)[C@H](CNCCC(=O)N1CCc2nc(SC3CCC3)n(-c3ccccc3)c(=O)c2C1)Nc1ccc(Cl)cc1` [Example 40, 6-[3-[[(2R)-2-(4-chloroanilino)-3-methyl-butyl]amino]propanoyl]-2-cyclobutylsulfanyl-3-phenyl-7,8-dihydro-5H-pyrido[4,3-d]pyrimidin-4-one trifluoroacetate], the half-maximal inhibitory concentration (IC50) was determined as 0.7 nM.
The same measure, in the same setting: in the case of `C[C@@H](NCCC(=O)N1CCc2nc(SC3CCC3)n(-c3ccccc3)c(=O)c2C1)c1ccccc1` [Example 41, 2-cyclobutylsulfanyl-3-phenyl-6-[3-[[(1R)-1-phenylethyl]amino]propanoyl]-7,8-dihydro-5H-pyrido[4,3-d]pyrimidin-4-one trifluoroacetate] it was 1.1 nM.
On the same count and under the same terms, to `C[C@H](NCCC(=O)N1CCc2nc(SC3CCC3)n(-c3ccccc3)c(=O)c2C1)c1ccccc1` [Example 42, 2-cyclobutylsulfanyl-3-phenyl-6-[3-[[(1S)-1-phenylethyl]amino]propanoyl]-7,8-dihydro-5H-pyrido[4,3-d]pyrimidin-4-one trifluoroacetate] belongs 1.2 nM; to `O=C(CCNC[C@H](O)c1ccc(F)cc1)N1CCc2nc(SC3CCC3)n(-c3ccccc3)c(=O)c2C1` [Example 43, 2-cyclobutylsulfanyl-6-[3-[[(2R)-2-(4-fluorophenyl)-2-hydroxy-ethyl]amino]propanoyl]-3-phenyl-7,8-dihydro-5H-pyrido[4,3-d]pyrimidin-4-one trifluoroacetate], 2.5 nM.
`O=C(CCNCC(O)COc1ccc(F)cc1)N1CCc2nc(SC3CCC3)n(-c3ccccc3)c(=O)c2C1` (stereo not shown) [Example 44, trifluoroacetate]: the half-inhibitory concentration (IC50) was found to be 1.8 nM and the “Potency relative to Comparative Example 1 (higher = more potent)” value was found to be 135.
Turning to `O=C(CCNCC(O)COc1ccc(Cl)cc1)N1CCc2nc(SC3CCC3)n(-c3ccccc3)c(=O)c2C1` (stereo not shown) [Example 45, 6-[3-[[3-(4-chlorophenoxy)-2-hydroxy-propyl]amino]propanoyl]-2-cyclobutylsulfanyl-3-phenyl-7,8-dihydro-5H-pyrido[4,3-d]pyrimidin-4-one trifluoroacetate], the IC50 was determined as 1.3 nM.
On the same count and under the same terms, in the case of `O=C(CCNCCOc1ccc(F)cc1)N1CCc2nc(SC3CCC3)n(-c3ccccc3)c(=O)c2C1` [Example 46, 2-cyclobutylsulfanyl-6-[3-[2-(4-fluorophenoxy)ethylamino]propanoyl]-3-phenyl-7,8-dihydro-5H-pyrido[4,3-d]pyrimidin-4-one trifluoroacetate] it was under 1 nM.
For the molecule `O=C(CCNCCCOc1ccc(F)cc1)N1CCc2nc(SC3CCC3)n(-c3ccccc3)c(=O)c2C1` [Example 47, 2-cyclobutylsulfanyl-6-[3-[3-(4-fluorophenoxy)propylamino]propanoyl]-3-phenyl-7,8-dihydro-5H-pyrido[4,3-d]pyrimidin-4-one trifluoroacetate], the IC50 came out at 1.1 nM.
